The values that follow come from the supplement of paper PMC4932681.

The subject of assay [1] is BT-474 Tam1. The assay is described as follows: drug sensitivity score (DSS) (DSS (dimensionless)); higher = more sensitive; extreme values may be limits of the assay. The following applies: 4-OH-tamoxifen in medium 1 µM; 72 h. The procedure:
(§1)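 FIMM FO2B library drugs were tested at 5 concentrations (10,000-fold range) for 72 h, with CellTiter-Glo viability normalised to DMSO and benzethonium chloride controls. The Drug Sensitivity Score (DSS) is computed from the fitted logistic dose-response curve (area-based; 0 = inactive). Resistant lines and the 'in 1µM tamoxifen' arms were tested in 1 µM 4-OH-tamoxifen.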

For assay [2], the system named is BT-474. The assay is described as above. The following applies: 72 h. Here is the method:
as §1

The test system of assay [3] is ZR-75-1. Described as above. To be noted: 72 h. Here is the method:
as §1

Assay [4] deals with T-47D. The description is as above. The following applies: 72 h. The procedure:
as §1

The test system of assay [5] is ZR-75-1 Tam1. The assay is described as above. The following applies: 4-OH-tamoxifen in medium 1 µM; 72 h. Here is the method:
as §1

Assay [6] deals with BT-474 Tam2. The assay is described as above. The following applies: 4-OH-tamoxifen in medium 1 µM; 72 h. The procedure: as §1
For assay [7], the system named is T-47D Tam1. The description is as above. To be noted: 4-OH-tamoxifen in medium 1 µM; 72 h. The procedure:
as §1

Assay [8] relates to T-47D Tam2. The assay is described as above. To be noted: 4-OH-tamoxifen in medium 1 µM; 72 h. Here is the method: as §1
The subject of assay [9] is MCF-7. The assay is described as above. The following applies: 72 h. The procedure:
as §1

In assay [10] the test system is MCF-7 Tam1. Described as above. The following applies: 4-OH-tamoxifen in medium 1 µM; 72 h. The procedure: as §1
In assay [11] the test system is ZR-75-1 Tam2. The assay is described as above. The following applies: 4-OH-tamoxifen in medium 1 µM; 72 h. Here is the method: as §1
Assay [12] concerns BT-474 Tam1. The experiment in a line: relative IC50 (midpoint of fitted logistic curve, plateau may be below 50% inhibition; CellTiter-Glo viability); higher = less potent. The following applies: 4-OH-tamoxifen in medium 1 µM; 72 h. The procedure: (§2)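 FIMM FO2B library drugs were plated at 5 concentrations spanning a 10,000-fold range in 384-well plates. Cells were incubated for 72 h at 37 °C and viability was read by CellTiter-Glo, normalised to DMSO (0% inhibition) and 100 µM benzethonium chloride (100% inhibition). IC50 values come from logistic dose-response fits (Breeze pipeline). Tamoxifen-resistant lines and the 'in 1µM tamoxifen' parental arms were tested in medium with 1 µM 4-OH-tamoxifen.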

For assay [13], the system named is BT-474. The description is as above. The following applies: 72 h. The procedure:
as §2

The subject of assay [14] is ZR-75-1. The assay is described as above. To be noted: 72 h. The procedure:
as §2

Assay [15] deals with T-47D. Described as above. To be noted: 72 h. Here is the method:
as §2

In assay [16] the test system is ZR-75-1 Tam1. Described as above. The following applies: 4-OH-tamoxifen in medium 1 µM; 72 h. Here is the method: as §2
Assay [17] relates to BT-474 Tam2. The description is as above. The following applies: 4-OH-tamoxifen in medium 1 µM; 72 h. Here is the method: as §2
The test system of assay [18] is ZR-75-1 Tam2. The assay is described as above. The following applies: 4-OH-tamoxifen in medium 1 µM; 72 h. Here is the method:
as §2

In assay [19] the test system is T-47D Tam1. Described as above. The following applies: 4-OH-tamoxifen in medium 1 µM; 72 h. The procedure: as §2
The subject of assay [20] is MCF-7. The description is as above. The following applies: 72 h. The procedure:
as §2

The test system of assay [21] is MCF-7 Tam1. The description is as above. The following applies: 4-OH-tamoxifen in medium 1 µM; 72 h. Here is the method:
as §2

Broadly, the relative IC50 is the concentration halfway between the upper and lower plateau of the fitted curve.

As to `CC[C@H](CO)Nc1nc(NCc2ccccc2)c2ncn(C(C)C)c2n1` [Seliciclib (Roscovitine)], the drug sensitivity score in [1], in [2] (4-OH-tamoxifen in medium 0 µM), in assay [2] (4-OH-tamoxifen in medium 1 µM), in assay [3] (4-OH-tamoxifen in medium 0 µM), in assay [3] (4-OH-tamoxifen in medium 1 µM) and in assay [4] (4-OH-tamoxifen in medium 0 µM) was 0 each time. Further, the drug sensitivity score is 0 in assay [4] (4-OH-tamoxifen in medium 1 µM); 0 in assay [5]; 0 in assay [6]; 4 in assay [7]; 0.682 in assay [8]; 0.816 in [9] (4-OH-tamoxifen in medium 0 µM). Besides, the drug sensitivity score in assay [9] (4-OH-tamoxifen in medium 1 µM) came out at 0.217; in assay [10], 0.0488; in assay [11], 0. Moreover, the “relative IC50” value in assay [12], in [13] (4-OH-tamoxifen in medium 0 µM), in assay [13] (4-OH-tamoxifen in medium 1 µM), in [14] (4-OH-tamoxifen in medium 0 µM), in [14] (4-OH-tamoxifen in medium 1 µM) and in assay [15] (4-OH-tamoxifen in medium 0 µM) was greater than 10000 nM throughout. The “relative IC50” value in [15] (4-OH-tamoxifen in medium 1 µM), in [16], in assay [17] and in assay [18] was greater than 10000 nM in each case.
Regarding `CO[C@H]1C[C@@H]2CC[C@@H](C)[C@@](O)(O2)C(=O)C(=O)N2CCCC[C@H]2C(=O)O[C@H]([C@H](C)C[C@@H]2CC[C@@H](OC(=O)C(C)(CO)CO)[C@H](OC)C2)CC(=O)[C@H](C)/C=C(\C)[C@@H](O)[C@@H](OC)C(=O)[C@H](C)C[C@H](C)/C=C/C=C/C=C/1C` [Temsirolimus], the drug sensitivity score in assay [1] turned out to be 1.35; in [2] (4-OH-tamoxifen in medium 0 µM) it was 0.668; in assay [2] (4-OH-tamoxifen in medium 1 µM), 0; in [3] (4-OH-tamoxifen in medium 0 µM), 8.12; in [3] (4-OH-tamoxifen in medium 1 µM), 4.72; in [4] (4-OH-tamoxifen in medium 0 µM) it was 3.79. In addition, the drug sensitivity score in [4] (4-OH-tamoxifen in medium 1 µM) amounted to 0.468; in assay [5], 4.48; in [6] it was 0.262; in assay [7], 5.45; in [8], 2.09; in assay [9] (4-OH-tamoxifen in medium 0 µM) it was 10.3. Moreover, the drug sensitivity score in assay [9] (4-OH-tamoxifen in medium 1 µM) worked out at 6.12; in [10] it was 0.189; in assay [11], 8.51. In addition, the “relative IC50” value in assay [13] (4-OH-tamoxifen in medium 1 µM) was greater than 100 nM; in assay [14] (4-OH-tamoxifen in medium 0 µM), 0.917 nM; in [16], 2.67 nM; in assay [19], 2.04 nM; in assay [20] (4-OH-tamoxifen in medium 0 µM), 0.493 nM; in assay [20] (4-OH-tamoxifen in medium 1 µM), 2 nM. In addition, in assay [18], the “relative IC50” value was determined as 1.08 nM.
For the molecule `O=C(Nc1ccncc1)C(=O)c1cn(Cc2ccc(Cl)cc2)c2ccccc12` [Indibulin], the drug sensitivity score came out at 0 in [1]; 0.543 in assay [2] (4-OH-tamoxifen in medium 0 µM); 4.58 in assay [2] (4-OH-tamoxifen in medium 1 µM); 0.997 in [3] (4-OH-tamoxifen in medium 0 µM); 0 in assay [3] (4-OH-tamoxifen in medium 1 µM); 0 in assay [4] (4-OH-tamoxifen in medium 0 µM). For the same molecule, the drug sensitivity score in assay [4] (4-OH-tamoxifen in medium 1 µM) came to 0.395; in [5], 0.0575; in assay [6], 3.18; in assay [7], 3.37; in assay [8] it was 0.194; in assay [9] (4-OH-tamoxifen in medium 0 µM) it was 8.82. The values for the drug sensitivity score in assay [9] (4-OH-tamoxifen in medium 1 µM), in assay [10] and in assay [11] were 6.28, 0 and 0.106, respectively. The “relative IC50” value was greater than 10000 nM in assay [12]; 474 nM in assay [13] (4-OH-tamoxifen in medium 1 µM); greater than 10000 nM in [14] (4-OH-tamoxifen in medium 1 µM); greater than 10000 nM in assay [15] (4-OH-tamoxifen in medium 0 µM); 32 nM in assay [20] (4-OH-tamoxifen in medium 0 µM); 189 nM in assay [20] (4-OH-tamoxifen in medium 1 µM). Moreover, in assay [21], the “relative IC50” value is greater than 10000 nM.
